Measured values published in patent US20100099614A1, “Antimicrobial Peptides and Methods of Use” (priority 2008, published 2010).
Converted amounts (≈) assume the structure as drawn. “And” between values parts separate entries of the source, which are not always exact repeats. Identical values can stand only once.

Assays:
Gram-negative bacteria = experiment: Antibacterial activity (MIC), microtiter dilution; type: cell-based
Protocol: MICs were determined by a standard microtiter dilution method in Mueller Hinton Broth (MHB). Serial dilutions of the 10× compound were added to the microtiter plates in a volume of 10 μL followed by 90 μL of bacteria for an inoculum of 5×10^5 colony-forming units (CFU)/mL. The plates were incubated at 37° C. for 24 h, and the MICs were determined as the lowest peptide concentration that inhibited growth. […]
Alternatively; minimal inhibitory concentrations were determined using a standard microtiter dilution method in a Mueller-Hinton (MH) medium. Briefly, cells were grown overnight at 37° C. in MH broth and diluted in the same medium. Serial dilutions of the peptides were added to the microtiter plates in a volume of 100 μl followed by 10 μl of bacteria for an initial cell concentration of 1×10^5 CFU/ml. Plates were incubated at 37° C. for 24 hours and MICs determined as the lowest peptide concentration that inhibited growth.

[1] = test system: Scedosporium prolificans (clinical isolate); experiment: Antifungal activity (MIC50/MIC90); type: cell-based
From the text: (§1) The filamentous fungal and yeast strains used in this study were either purchased from American Type Culture Collection, Manassas, Va. (ATCC) or were generous gifts from various institutions: Aspergillus nidulans (AZN 2867), Absidia corymbifera (clinical isolate), Rhizomucor spp. (clinical isolate), Rhizopus microsporus (clinical isolate), Rhizopus oryzae (AZN 8892), Scedosporium prolificans (clinical isolate), Candida albicans (ATCC 24433).
(§2) Fungal spores (final concentration 10^4 spores/ml) were suspended in ½ Potato Dextrose Broth (Difco), and the yeast strains were suspended at a starting A600=0.001 in the yeast complete medium YPG (1% yeast extract, 1% peptone, 2% glucose). The medium was supplemented with tetracycline (10 μg/ml) and cefotaxim (100 μg/ml), and dispensed by aliquots of 80 μl into wells of a microplate containing 20 μl of either water or the sample to be analyzed. Growth of fungi and yeasts was evaluated after 24 h at 30° C. by light microscopy and after 48 h by measuring the culture absorbance at 595 nm using a microplate reader. Under conditions where the antifungal assay was performed in the presence of salt, the ½ Potato Dextrose Broth medium was prepared in phosphate-buffered saline, 137 mM NaCl.
(§3) The procedure used for the determination of the minimal inhibitory concentration (MIC) was identical to that for the antifungal assay. The MIC values are expressed as the lowest peptide concentration that causes 90% or 50% growth inhibition. The fungicidal effects of the synthetic peptides in the MIC assay were verified by reinoculation of the yeasts in potato dextrose broth at the end of the incubation time.

[2] = test system: Candida albicans (ATCC 24433); experiment: Antifungal activity (MIC50/MIC90); type: cell-based
From the text: as §1, §2, §3

human red blood cells = experiment: Hemolytic activity (MHC50/HC50), 18 h microtiter dilution; type: cell-based; conditions: for Hemolytic activity Fold (fold improvement in HC50 compared to that of D4): relative to D4
Protocol: Hemoglobin release was determined spectrophotometrically at 570 nm. […] MHC50 was determined by plot the concentration-lysis format.

Interleukin-6 (IL-6) = experiment: Cytokine assay, stimulation of peripheral blood mononuclear cells, ELISA; type: cell-based, human
Protocol: (§4) Isolation of peripheral blood mononuclear cells (PBMCs) from 5 healthy individuals was performed as described elsewhere (108). Briefly, venous blood was drawn into 10 ml tubes containing 0.2 mg of EDTA (Monoject's-Hertogenbosch, NL). The PBMC fraction was obtained by density centrifugation of blood using Ficoll-Paque (Pharmacia Biotech AB, Sweden). […] The PBMCs were incubated in 96-well tissue culture plates (Greiner, Alphen, NL) at a concentration of 5×10^5 cells per well in a total volume of 200 μl, in the presence or absence of a set of stimuli in different experiments. […] After 24 h of incubation, the supernatants were collected and stored at -80° C. until analysis. Interleukin-6 (IL-6) and tumor necrosis factor (TNF) were measured by ELISA according to the manufacturer's protocol ([…], CLB, Amsterdam, NL). […] Agilent Technologies) with a linear AB gradient (0.2% acetonitrile/min) at a flow rate of 2 ml/min, where mobile phase A was 0.1% aqueous TFA in water and B was 0.1% TFA in acetonitrile. The purity of peptides was verified by analytical RP-HPLC. The peptides were further characterized by electrospray mass spectrometry and amino acid analysis.

[3] = test system: tumor necrosis factor (TNF); experiment: as above; type: cell-based, human
Protocol: as §4

[4] = test system: Rhizomucor spp. (clinical isolate)
[5] = Helical structure by circular dichroism spectroscopy; type: physicochemical; conditions: 222 nm
Protocol: The mean residue molar ellipticities of peptides were determined by circular dichroism (CD) spectroscopy, using a Jasco J-810 spectropolarimeter (Easton, Md.) at 5° C. under benign (non-denaturing) conditions (50 mM NaH2PO4/Na2HPO4/100 mM KCl, pH 7.0), hereafter referred to as benign buffer, as well as in the presence of an α-helix inducing solvent, 2,2,2-trifluoroethanol, TFE, (50 mM NaH2PO4/Na2HPO4/[…], pH 7.0 buffer/50% TFE). A 10-fold dilution of an approximately […] stock solution of the peptide analogs was loaded into a 0.1 cm quartz cell and its ellipticity scanned from 195 to 250 nm. The values of molar ellipticities of the peptide analogs at a wavelength of 222 nm were used to estimate the relative α-helicity of the peptides.

[6] = peptide concentration 0.01 μg/ml
[7] = peptide concentration 100 μg/ml

CC[C@@H](C)[C@@H](NC(=O)[C@@H](C)NC(=O)[C@@H](CCCCN)NC(=O)[C@@H](CC(C)C)NC(=O)[C@@H](C)NC(=O)[C@H](NC(=O)[C@@H](Cc1c[nH]cn1)NC(=O)[C@@H](CC(C)C)NC(=O)[C@H](NC(=O)[C@H](NC(=O)[C@@H](CCCCN)NC(=O)[C@@H](CCCCN)NC(=O)[C@@H](C)NC(=O)[C@@H](CO)NC(=O)[C@@H](CCCCN)NC(=O)[C@@H](Cc1ccccc1)NC(=O)[C@H](NC(=O)[C@@H](CCCCN)NC(=O)[C@@H](CC(C)C)NC(=O)[C@@H](Cc1ccccc1)NC(=O)[C@@H](CO)NC(=O)[C@@H](CCCCN)NC(=O)[C@@H](Cc1c[nH]c2ccccc12)NC(=O)[C@@H](CCCCN)NC(C)=O)[C@H](C)O)[C@H](C)O)C(C)C)[C@H](C)O)C(=O)N[C@H](CO)C(=O)N[C@H](CO)C(N)=O [D1]
MIC B. subtilus C626 (Gram-positive bacteria; B. subtilus C626, MH medium, 37° C., 24 h): 32 µg/mL (≈ 10.7 µM) | MIC B. subtilus C971 ATCC6633 (Gram-positive bacteria; B. subtilus C971 ATCC6633, MH medium, 37° C., 24 h): 2 µg/mL (≈ 0.669 µM) | MIC E. jaecalis C625 (Gram-positive bacteria; E. jaecalis C625, MH medium, 37° C., 24 h): 32 µg/mL (≈ 10.7 µM) | MIC S. aureus C622 ATCC3923 (Gram-positive bacteria; S. aureus C622 ATCC3923, MH medium, 37° C., 24 h): 64 µg/mL (≈ 21.4 µM) | MIC S. aureus K147 (Gram-positive bacteria; S. aureus K147, MH medium, 37° C., 24 h): 64 µg/mL (≈ 21.4 µM) | MIC S. epidermidis C623 (Gram-positive bacteria; S. epidermidis C623, MH medium, 37° C., 24 h): 4 µg/mL (≈ 1.34 µM) | Fold improvement in antimicrobial activity (geometric mean data) compared to that of D4, Gram-positive bacteria (Gram-positive bacteria; relative to D4): 0.9 fold | MIC GM (geometric mean of the MIC values), Gram-positive bacteria (Gram-positive bacteria; six Gram-positive strains): 18.0 µg/mL | MIC E. coli C498 UB1005 (Gram-negative bacteria; E. coli C498 UB1005, MH medium, 37° C., 24 h): 2 µg/mL (≈ 0.669 µM) | MIC E. coli C857 DH5a (Gram-negative bacteria; E. coli C857 DH5a, MH medium, 37° C., 24 h): 2 µg/mL (≈ 0.669 µM) | MIC E. coli UB1005 (Gram-negative bacteria; E. coli UB1005, MH medium, 37° C., 24 h): 4 µg/mL (≈ 1.34 µM) | MIC P. aeruginosa PAO1 (Gram-negative bacteria; P. aeruginosa PAO1, Mueller-Hinton medium, 37° C., 24 h, four sets of determinations): 8 µg/mL (≈ 2.68 µM) | MIC S. ryphimurium 14208S (Gram-negative bacteria; S. ryphimurium 14208S, MH medium, 37° C., 24 h): 32 µg/mL (≈ 10.7 µM) | MIC S. ryphimurium C587 14208S (Gram-negative bacteria; S. ryphimurium C587 14208S, MH medium, 37° C., 24 h): 4 µg/mL (≈ 1.34 µM) | Fold improvement in antimicrobial activity (geometric mean data) compared to that of D4, Gram-negative bacteria (Gram-negative bacteria; relative to D4): 4.5 fold | MIC GM (geometric mean of the MIC values), Gram-negative bacteria (Gram-negative bacteria; six Gram-negative strains, 128 μg/mL used where no activity at 64 μg/mL): 5.0 µg/mL | S. prolificans MIC50 ([1]; inhibits 50% of fungal growth): 50.0 µg/mL | S. prolificans MIC90 ([1]; inhibits 90% of fungal growth): 50.0 µg/mL | C. albicans MIC50 ([2]; inhibits 50% of fungal growth): 50.0 µg/mL | C. albicans MIC90 ([2]; inhibits 90% of fungal growth): 50.0 µg/mL | GM (geometric mean of the MIC50 values), Zygomycota fungi (Zygomycota fungi; four Zygomycota strains): 9.1 µg/mL | Fold improvement in antifungal activity (geometric mean data) compared to that of D4, Zygomycota fungi (Zygomycota fungi; relative to D4): 5.5 fold | Hemolytic activity HC50 (human red blood cells; further experiments, 50% hemolysis of human red blood cells after 18 h): 421.5 µg/mL | Hemolytic activity Fold (fold improvement in HC50 compared to that of D4) (human red blood cells; further experiments): 120 fold | Hemolytic activity HC50 (human red blood cells; peptide concentration that produces 50% hemolysis of human red blood cells after 18 h, standard microtiter dilution method): 1000 µg/mL and 1000.0 µg/mL | Hemolytic activity Fold (fold improvement in HC50 compared to that of D4) (human red blood cells): 286 fold | IL-6 Exp 1 (Interleukin-6 (IL-6); [6]): <3 pg/mL | IL-6 Exp 2 (Interleukin-6 (IL-6); peptide concentration 0.01 μg/ml, Exp 2): <3 pg/mL | IL-6 Exp 1 (Interleukin-6 (IL-6); [7]): <3 pg/mL | TNF Exp 1 [3, 6]: <0.015 ng/mL | TNF Exp 2 [3, 6]: <0.015 ng/mL | TNF Exp 1 ([3]; peptide concentration 1 μg/ml): <0.015 ng/mL | TNF Exp 2 ([3]; peptide concentration 1 μg/ml): <0.015 ng/mL | TNF Exp 1 [3, 7]: <0.015 ng/mL | TNF Exp 2 [3, 7]: <0.015 ng/mL | Rhizomucor spp. MIC50 ([4]; inhibits 50% of fungal growth): 4.7 µg/mL | Rhizomucor spp. MIC90 ([4]; inhibits 90% of fungal growth): 6.3 µg/mL | 50% TFE [θ]222 (mean residue molar ellipticity) ([5]; benign buffer containing 50% trifluoroethanol): 34,100 deg cm^2/dmol | Benign [θ]222 (mean residue molar ellipticity) ([5]; benign conditions (100 mM KCl, 50 mM NaH2PO4/Na2HPO4, pH 7.0)): 1,150 deg cm^2/dmol
